In patent USRE50724E1, “4-membered ring carboxamides used as nematicides” (SYNGENTA CROP PROTECTION AG, priority 2013, dated 2026) one finds pest or weed control data, which are given here for 38 molecules.

The subject of one assay is Heterodera schachtii. Nature of the assay: Heterodera schachtii (sugar beet cyst nematode), nematicide, contact activity: juvenile paralysis in 16-well assay plates. Conditions: 200 ppm, approx. 500 juveniles per well, 24 hours incubation at 25° C. in darkness, read-out: nematode immobilization compared to the untreated control. In kind it is in vivo. On the procedure: Heterodera schachtii (Sugar Beet Cyst Nematode), Nematicide, Contact Activity
The tested application rate of each compound was 200 ppm. All solutions were brought to a concentration of 400 ppm, respectively, as they were subsequently diluted by adding the equivalent amount of water containing juvenile nematodes. After preparation of the suspensions, 1 ml of each suspension and concentration was transferred to 16-well assay plates with a total of three replicates per treatment. Approximately 500 juveniles of Heterodera schachtii were added in 1 ml of water to each well. Nematodes in water served as controls. The plates were placed in a dark box and stored at room temperature. Nematode paralysis was determined after 24 hours incubation at 25° C. in darkness.
In the case of `O=C(N[C@H]1CC[C@H]1c1ccc(Cl)cc1)c1c(F)cccc1Cl` [Compound 61.22, 2-chloro-N-[(1S,2S)-2-(4-chlorophenyl)cyclobutyl]-6-fluorobenzamide], the pest or weed control at 200 ppm was over 75%. On to `O=C(N[C@H]1CC[C@H]1c1ccc(Cl)cc1)c1ncccn1` [Compound 61.47, N-[(1S,2S)-2-(4-chlorophenyl)cyclobutyl]pyrimidine-2-carboxamide], for which the pest or weed control at 200 ppm is over 75%. `O=C(N[C@H]1CC[C@H]1c1ccc(Cl)cc1Cl)c1ccoc1C(F)(F)F` [Compound 61.174, N-[(1S,2S)-2-(2,4-dichlorophenyl)cyclobutyl]-2-(trifluoromethyl)furan-3-carboxamide]: the pest or weed control at 200 ppm is over 75%. Consider `COc1ccccc1C(=O)N[C@H]1CC[C@H]1c1ccc(Cl)cc1Cl` [Compound 61.58, N-[(1S,2S)-2-(2,4-dichlorophenyl)cyclobutyl]-2-methoxybenzamide], for which the pest or weed control at 200 ppm is over 75%. Same read-out and setting: in the case of `O=C(N[C@H]1CC[C@H]1c1ccc(Cl)cc1)c1ncccc1Cl` [Compound 61.46, 3-chloro-N-[(1S,2S)-2-(4-chlorophenyl)cyclobutyl]pyridine-2-carboxamide] it was over 75%.

Take `Cc1ncccc1C(=O)N[C@H]1CC[C@H]1c1ccc(F)cc1F` [Compound 61.140, N-[(1S,2S)-2-(2,4-difluorophenyl)cyclobutyl]-2-methylpyridine-3-carboxamide]: the pest or weed control at 200 ppm was over 75%. Consider `O=C(N[C@H]1CC[C@H]1c1ccc(F)cc1F)c1ccsc1C(F)(F)F` [Compound 61.137, N-[(1S,2S)-2-(2,4-difluorophenyl)cyclobutyl]-2-(trifluoromethyl)thiophene-3-carboxamide], for which the pest or weed control at 200 ppm was over 75%. On to `O=C(N[C@H]1CC[C@H]1c1ccc(Cl)cc1)c1sccc1Br` [Compound 61.14, 3-bromo-N-[(1S,2S)-2-(4-chlorophenyl)cyclobutyl]thiophene-2-carboxamide], for which the pest or weed control at 200 ppm is over 75%. In the case of `O=C(N[C@H]1CC[C@H]1c1ccc(F)cc1F)c1cccnc1Cl` [Compound 61.133, 2-chloro-N-[(1S,2S)-2-(2,4-difluorophenyl)cyclobutyl]pyridine-3-carboxamide], the pest or weed control at 200 ppm is over 75%. As for `Cn1cc(C(=O)N[C@H]2CC[C@H]2c2ccc(F)cc2F)c(C(F)F)n1` [Compound 61.127, 3-(difluoromethyl)-N-[(1S,2S)-2-(2,4-difluorophenyl)cyclobutyl]-1-methylpyrazole-4-carboxamide], the pest or weed control at 200 ppm is over 75%. Consider `Cc1nscc1C(=O)N[C@H]1CC[C@H]1c1ccc(Cl)cc1Cl` [Compound 61.74, N-[(1S,2S)-2-(2,4-dichlorophenyl)cyclobutyl]-3-methyl-1,2-thiazole-4-carboxamide], for which the pest or weed control at 200 ppm is over 75%. Consider `O=C(N[C@H]1CC[C@H]1c1ccc(F)cc1F)c1c(F)cccc1C(F)(F)F` [Compound 61.131, N-[(1S,2S)-2-(2,4-difluorophenyl)cyclobutyl]-2-fluoro-6-(trifluoromethyl)benzamide], for which the pest or weed control at 200 ppm was over 75%. Turning to `O=C(N[C@H]1CC[C@H]1c1ccc(F)cc1F)c1ccccc1Cl` [Compound 61.113, 2-chloro-N-[(1S,2S)-2-(2,4-difluorophenyl)cyclobutyl]benzamide], the pest or weed control at 200 ppm was over 75%. On the same count and under the same terms, in the case of `COc1cccnc1C(=O)N[C@H]1CC[C@H]1c1ccc(Cl)cc1` [Compound 61.11, N-[(1S,2S)-2-(4-chlorophenyl)cyclobutyl]-3-methoxypyridine-2-carboxamide] it was over 75%; in that of `O=C(N[C@H]1CC[C@H]1c1ccc(F)cc1F)c1ncccc1F` [Compound 61.124, N-[(1S,2S)-2-(2,4-difluorophenyl)cyclobutyl]-3-fluoropyridine-2-carboxamide], over 75%; in that of `Cc1nccnc1C(=O)N[C@H]1CC[C@H]1c1ccc(Cl)cc1` [Compound 61.26, N-[(1S,2S)-2-(4-chlorophenyl)cyclobutyl]-3-methylpyrazine-2-carboxamide], over 75%. Consider `Cn1cccc1C(=O)N[C@H]1CC[C@H]1c1ccc(F)cc1F` [Compound 61.126, N-[(1S,2S)-2-(2,4-difluorophenyl)cyclobutyl]-1-methylpyrrole-2-carboxamide], for which the pest or weed control at 200 ppm was over 75%.

Take `O=C(N[C@H]1CC[C@H]1c1ccc(Cl)cc1Cl)c1ccsc1C(F)(F)F` [Compound 61.97, N-[(1S,2S)-2-(2,4-dichlorophenyl)cyclobutyl]-2-(trifluoromethyl)thiophene-3-carboxamide]: the pest or weed control at 200 ppm was over 75%. `Cc1nccnc1C(=O)N[C@H]1CC[C@H]1c1ccc(Cl)cc1Cl` [Compound 61.70, N-[(1S,2S)-2-(2,4-dichlorophenyl)cyclobutyl]-3-methylpyrazine-2-carboxamide]: the pest or weed control at 200 ppm is over 75%. With `Cc1ccccc1C(=O)N[C@H]1CC[C@H]1c1ccc(Cl)cc1Cl` [Compound 61.62, N-[(1S,2S)-2-(2,4-dichlorophenyl)cyclobutyl]-2-methylbenzamide], the pest or weed control at 200 ppm was over 75%. With `O=C(N[C@H]1CC[C@H]1c1ccc(Cl)cc1Cl)c1ccccc1OC(F)(F)F` [Compound 61.81, N-[(1S,2S)-2-(2,4-dichlorophenyl)cyclobutyl]-2-(trifluoromethoxy)benzamide], the pest or weed control at 200 ppm was over 75%. In the case of `O=C(N[C@H]1CC[C@H]1c1ccc(Cl)cc1Cl)c1nccnc1Br` [Compound 61.162, 3-bromo-N-[(1S,2S)-2-(2,4-dichlorophenyl)cyclobutyl]pyrazine-2-carboxamide], the pest or weed control at 200 ppm was over 75%. As to `O=C(N[C@H]1CC[C@H]1c1ccc(F)cc1F)c1cnccc1C(F)(F)F` [Compound 61.114, N-[(1S,2S)-2-(2,4-difluorophenyl)cyclobutyl]-4-(trifluoromethyl)pyridine-3-carboxamide], the pest or weed control at 200 ppm is over 75%. Same read-out and setting: in the case of `Cc1occc1C(=O)N[C@H]1CC[C@H]1c1ccc(F)cc1F` [Compound 61.144, N-[(1S,2S)-2-(2,4-difluorophenyl)cyclobutyl]-2-methylfuran-3-carboxamide] it was over 75%; in that of `O=C(N[C@H]1CC[C@H]1c1ccc(F)cc1F)c1ncccc1Br` [Compound 61.146, 3-bromo-N-[(1S,2S)-2-(2,4-difluorophenyl)cyclobutyl]pyridine-2-carboxamide], over 75%; in that of `O=C(N[C@H]1CC[C@H]1c1ccc(F)cc1F)c1ccccc1I` [Compound 61.125, N-[(1S,2S)-2-(2,4-difluorophenyl)cyclobutyl]-2-iodobenzamide], over 75%. `O=C(N[C@H]1CC[C@H]1c1ccc(Cl)cc1Cl)c1cscn1` [Compound 61.88, N-[(1S,2S)-2-(2,4-dichlorophenyl)cyclobutyl]-1,3-thiazole-4-carboxamide]: the pest or weed control at 200 ppm is over 75%. The same measure, in the same setting: under `O=C(N[C@H]1CC[C@H]1c1ccc(Cl)cc1Cl)c1ccsc1I` [Compound 61.96, N-[(1S,2S)-2-(2,4-dichlorophenyl)cyclobutyl]-2-iodothiophene-3-carboxamide] stands over 75%; under `O=C(N[C@H]1CC[C@H]1c1ccc(F)cc1F)c1ccccc1F` [Compound 61.121, N-[(1S,2S)-2-(2,4-difluorophenyl)cyclobutyl]-2-fluorobenzamide], over 75%; under `COc1cccc(F)c1C(=O)N[C@H]1CC[C@H]1c1ccc(Cl)cc1` [Compound 61.24, N-[(1S,2S)-2-(4-chlorophenyl)cyclobutyl]-2-fluoro-6-methoxybenzamide], over 75%.

For the molecule `Cc1ncoc1C(=O)N[C@H]1CC[C@H]1c1ccc(Cl)cc1Cl` [Compound 61.73, N-[(1S,2S)-2-(2,4-dichlorophenyl)cyclobutyl]-4-methyl-1,3-oxazole-5-carboxamide], the pest or weed control at 200 ppm is over 75%. For `Cc1oncc1C(=O)N[C@H]1CC[C@H]1c1ccc(Cl)cc1Cl` [Compound 61.83, N-[(1S,2S)-2-(2,4-dichlorophenyl)cyclobutyl]-5-methyl-1,2-oxazole-4-carboxamide], the pest or weed control at 200 ppm was over 75%. On to `O=C(N[C@H]1CC[C@H]1c1ccc(Cl)cc1)c1ccsc1I` [Compound 61.53, N-[(1S,2S)-2-(4-chlorophenyl)cyclobutyl]-2-iodothiophene-3-carboxamide], for which the pest or weed control at 200 ppm was over 75%.

Regarding `CC1=C(C(=O)N[C@H]2CC[C@H]2c2ccc(Cl)cc2Cl)SCCO1` [Compound 61.86, N-[(1S,2S)-2-(2,4-dichlorophenyl)cyclobutyl]-6-methyl-2,3-dihydro-1,4-oxathiine-5-carboxamide], the pest or weed control at 200 ppm is over 75%. Consider `Cc1ccccc1C(=O)N[C@H]1CC[C@H]1c1ccc(F)cc1F` [Compound 61.109, N-[(1S,2S)-2-(2,4-difluorophenyl)cyclobutyl]-2-methylbenzamide], for which the pest or weed control at 200 ppm is over 75%. Regarding `O=C(N[C@H]1CC[C@H]1c1ccc(F)cc1F)c1ncccc1C(F)(F)F` [Compound 61.151, N-[(1S,2S)-2-(2,4-difluorophenyl)cyclobutyl]-3-(trifluoromethyl)pyridine-2-carboxamide], the pest or weed control at 200 ppm was over 75%. Same read-out and setting: in the case of `O=C(N[C@H]1CC[C@H]1c1ccc(F)cc1F)c1ncccn1` [Compound 61.110, N-[(1S,2S)-2-(2,4-difluorophenyl)cyclobutyl]pyrimidine-2-carboxamide] it was over 75%.

Staying with this assay, now noted: 24 h, read-out: nematode immobilization compared to the untreated control.
On to `Cc1nc(C(F)(F)F)c(C(=O)N[C@H]2CC[C@H]2c2ccc(Cl)cc2Cl)s1` [Compound 61.93, N-[(1S,2S)-2-(2,4-dichlorophenyl)cyclobutyl]-2-methyl-4-(trifluoromethyl)-1,3-thiazole-5-carboxamide], for which the pest or weed control at 200 ppm is over 75%.
